# Patent publication US20260138976A1 (Hoffmann-La Roche Inc., priority 2022, published 2026)
# Several values for one entry are separate records, joined by “and”; a condition that tells them apart may be missing. Identical values can stand only once.
# Key:
# [1] = biological target: T1, DGKζ (hDGKzeta(1-928)-N-His) (Homo sapiens, UniProt Q13574); assay: In vitro DGK inhibition assay, DGKzeta ADP Glo (in house); type: biochemical; conditions: 2 nM DGKζ, 50 μM ATP, 125 uM DLG in liposomes, 1 hour reaction
# T1 construct: hDGKzeta(1-928)-N-His; His (N); made in house; host or cells: Sf21 insect cells (baculovirus)
# Experimental: DGKα and ζ kinases use ATP to phosphorylate the substrate 1,2-dilauroyl-sn-glycerol (DLG, incorporated in the liposomes). ATP is converted to ADP as a result of this enzymatic reaction. After the kinase reaction, an ATP-depletion reagent is added to terminate the kinase reaction and deplete any remaining ATP, leaving only ADP. Second, a detection reagent is added to simultaneously convert ADP to ATP and allow the newly synthesized ATP to be converted to light using a coupled luciferase/luciferin reaction.
# Full length DGKα and ζ were expressed in Sf21 insect cells by infecting the cells with the baculovirus stock at MOI of 2. Purification of both enzymes was performed as previously described by Takahashi et al., PeerJ, 2018 (Takahashi, D.; Sakane, F. Expression and purification of human diacylglycerol 5 kinase alpha from baculovirus-infected insect cells for structural studies. PeerJ2018, 6, No. e5449).
# A concentrated liposome solution was prepared in assay buffer without DTT and BSA: 2 mM of DLG in 21 mM of total liposome (2 mM DLG/8 mM PS/11 mM PC). The reaction mixtures contain the assay buffer with a final DLG concentration of 125 uM ATP concentrations of 25 μM (for DGKA assay) or 50 μM (for DGKZ assay). The reactions were started by addition of DGK α and ζ kinases at 4 nM and 2 nM final concentrations, respectively. After 1 hour reaction, the amount of ADP formed was detected with the ADP-Glo kinase assay (Promega) according to the manufacturer instructions. Compounds were added in 11-points dose response, starting at […], 1:3 dilutions, with a final DMSO concentration of 2%. The multidrop combi was used as a liquid handler and luminescence was read with 0.5 s by the envision reader (PE).
# primary human T-cells [2] = assay: Proliferation assay (5 days, CellTiter-Glo, CD3-stimulated T-cells); type: cell-based; conditions: for EC50: CD3-stimulated primary human T-cells, 5 days, CellTiter-Glo, fitted sigmoidal curve, read-out: Tcell Proliferation CD3 EC50; for Emax proliferation (% activation): CD3 condition, normalised to DMSO (neutral) and 20 μM reference compound A1 = 100%
# Experimental: (§1) As readouts for T-cell activation, 1L2 secretion after 24 hours and proliferation after 5 days was measured. Increases in IL2 secretion and proliferation upon compound treatment were assessed as the % of the maximum of reference compound A1. WO 2016/139181 discloses reference compound A1 as example 70. As a counter screen and to make sure that no unwanted TCR-independent activation was triggered, PBS conditions were run for all compounds.
# Expanded primary human T-cells are thawed and cultured in RPMI 1640 (Gibco, #61870-010)+5% human serum (HS, Sigma, #H3667)+1 mM Sodium Pyruvate (Gibco, #11360-039)+50 μM 2-mercaptoethanol (Gibco, #31350-010) and 1× Pen-Strep (Life Technologies, #15140122) medium at density of 2 Mio/ml for 3 hours in 5% CO2, 37° C. and 95% humidity. For coating of plates, PBS++ only or PBS++ with CD3 antibody (concentration depending on donor and determined by CD3 titrations) is added 100 μl/well to Poly-D Lysine coated 96-well plates. Plates are sealed and incubated at room temperature for 3 hours on a table-top rocking platform. After incubation, plates are washed once with PBS−− and filled with 40 μl/well culture medium only. Compounds are then added (see next section) to medium only plates. After 3 hours of culturing the T-cells, cells are filtered through a cell strainer (Miltenyi Biotech, #130-041-407), counted again and concentration is adjusted to 1.25 Mio/ml.
# Cells are then seeded 80 μl/well to the 40 μl/well including dispensed compounds according to plate layout. By adding cells, compounds are further diluted 1:3, and resulting in 100 k cells/120 μl/well. After 48 hours 40 μl of supernatant is collected carefully from the top while not disturbing the cells. Cells are assessed for proliferation 5 days later by measuring […] using CellTiterGlo (Promega).
# (§2) Compounds were added in a 5 or 6 pt dose response with the Tecan D300e Digital Dispenser, all conditions 3 times more concentrated than the end-concentration, since cells are added afterwards (80 μl cells to 40 μl prepared medium with treatment). The DR was starting at 20 μM or 10 μM final top concentration and a dilution factor of 3.333. The positive control was the reference compound A1 that was added in a dose response as well, additionally to 3 wells of only 20 μM representing the positive stimulator control. All wells were normalized with DMSO to a final concentration of 0.6% (0.2% end-concentration).
# After 5 days, for detection of ATP which is directly proportional to the number of cells present per well, the CellTiter-Glo® 2.0 Reagent is used. After visual control for toxicity or precipitations of the tested compounds, the plates are equilibrated to room temperature for 45 minutes. CellTiter-Glo® 2.0 Reagent is equilibrated to room temperature as well. After equilibration, an equal amount of CellTiter-Glo reagent is added to the cells (80 μl/well) with an electronic multichannel pipette. Plates are placed on a rocking platform for 15 minutes at room temperature. After incubation, the bottom of the plates is sealed with backing tape. Luminescence is measured with PHERAstar FSX (interval time 0.5 sec, gain 3000, focal height 15 mm) and exported as CSV file for analysis in Genedata screener.
# CD3 and PBS plates were analysed separately in Genedata Screener using Roche Normalization PCT_POS_CTRL with DMSO set as Neutral Control and 20 μM of the reference compound A1 set as Stimulator Control/100%.
# For CD3 conditions EC50 and Emax of the fitted sigmoidal curve were reported. If no curve could be fitted, the EC50 was reported as blank field and the Emax was based on individual data points. […] Compounds which activate unstimulated cells (see IL2 measurements) or compounds which negatively affected viability were flagged.
# primary human T-cells [3] = assay: IL2 secretion measurements (24 h, CD3-stimulated T-cells, PBS counter screen); type: cell-based; conditions: for EC50: CD3-stimulated primary human T-cells, IL2 secretion, fitted sigmoidal curve, read-out: Tcell IL2 CD3 EC50; for Emax IL2 (% activation): CD3 condition, normalised to DMSO (neutral) and 20 μM reference compound A1 = 100%
# Experimental: as §1
# Expanded primary human T-cells were thawed and cultured in RPMI 1640 (Gibco, #61870-010)+5% human serum (HS, Sigma, #H3667)+1 mM Sodium Pyruvate (Gibco, #11360-039)+50 μM 2-mercaptoethanol (Gibco, #31350-010) and 1× Pen-Strep (Life Technologies, #15140122) medium at density of 2 Mio/ml for 3 hours in 5% CO2, 37° C. and 95% humidity. For coating of plates, […] or PBS++ with CD3 antibody (concentration depending on donor and determined by CD3 titrations) was added 100 μl/well to Poly-D Lysine coated 96-well plates. Plates were sealed and incubated at room temperature for 3 hours on a table-top rocking platform. After incubation, plates were washed once with PBS−− and filled with 40 μl/well culture medium only. Compounds were then added (see next section) to medium only plates. After 3 hours of culturing the T-cells, cells were filtered through a cell strainer (Miltenyi Biotech, #130-041-407), counted again and concentration was adjusted to 1.25 Mio/ml.
# Cells were then seeded 80 μl/well to the 40 μl/well including dispensed compounds according to plate layout. By adding cells, compounds were further diluted 1:3, and resulting in 100 k cells/120 μl/well. After 24 hours 40 μl of supernatant was collected carefully from the top while not disturbing the cells and transferred into a round bottom 96 well plate. Collected and frozen supernatant was used for detection of IL2 using the IL-2 Human ProQuantum Immunoassay Kit (Invitrogen) or using the Human IL-2 ELISA Kit (Thermo Fisher).
# as §2
# The immunoassay is done following the manufacturer's manual (Invitrogen, #A35603). Additional information: For the immunoassay, MicroAmp™ EnduraPlate™ Optical 384-Well plates are used. Frozen supernatant is thawed and centrifuged for 5 minutes at 1000×g, both steps at 4° C. After centrifugation, required sample amount is taken from the top, and in a separate LightCycler V-bottom plate (working plate) diluted with assay dilution buffer, dilution factor depending on the PBS or CD3 condition but at least 1:3. IL-2 standard and blanks are prepared in the same V-bottom plate, standard with a range of 0.0128-5000 pg/ml (extended version). After preparation, 5 μl of sample dilutions or standard/blanks are transferred to the optical 384-well plate (assay plate) and the 10 μl reaction protocol is being followed. For measurement, the QuantStudio 12K Flex system is used. Raw data is extracted and IL-2 concentrations are calculated with the Thermo Fisher online app (apps.thermofisher.com/apps/proquantum).
# ELISA is done following the manufacturer's manual (Thermo Fisher Scientific, #88-7025-88). Additional information: For the ELISA Nunc MaxiSorp 96 well plates are used. Frozen supernatant is thawed and centrifuged for 5 minutes at 1000×g, both steps at 4° C. […]
# T1 sequence (Q13574 whole entry): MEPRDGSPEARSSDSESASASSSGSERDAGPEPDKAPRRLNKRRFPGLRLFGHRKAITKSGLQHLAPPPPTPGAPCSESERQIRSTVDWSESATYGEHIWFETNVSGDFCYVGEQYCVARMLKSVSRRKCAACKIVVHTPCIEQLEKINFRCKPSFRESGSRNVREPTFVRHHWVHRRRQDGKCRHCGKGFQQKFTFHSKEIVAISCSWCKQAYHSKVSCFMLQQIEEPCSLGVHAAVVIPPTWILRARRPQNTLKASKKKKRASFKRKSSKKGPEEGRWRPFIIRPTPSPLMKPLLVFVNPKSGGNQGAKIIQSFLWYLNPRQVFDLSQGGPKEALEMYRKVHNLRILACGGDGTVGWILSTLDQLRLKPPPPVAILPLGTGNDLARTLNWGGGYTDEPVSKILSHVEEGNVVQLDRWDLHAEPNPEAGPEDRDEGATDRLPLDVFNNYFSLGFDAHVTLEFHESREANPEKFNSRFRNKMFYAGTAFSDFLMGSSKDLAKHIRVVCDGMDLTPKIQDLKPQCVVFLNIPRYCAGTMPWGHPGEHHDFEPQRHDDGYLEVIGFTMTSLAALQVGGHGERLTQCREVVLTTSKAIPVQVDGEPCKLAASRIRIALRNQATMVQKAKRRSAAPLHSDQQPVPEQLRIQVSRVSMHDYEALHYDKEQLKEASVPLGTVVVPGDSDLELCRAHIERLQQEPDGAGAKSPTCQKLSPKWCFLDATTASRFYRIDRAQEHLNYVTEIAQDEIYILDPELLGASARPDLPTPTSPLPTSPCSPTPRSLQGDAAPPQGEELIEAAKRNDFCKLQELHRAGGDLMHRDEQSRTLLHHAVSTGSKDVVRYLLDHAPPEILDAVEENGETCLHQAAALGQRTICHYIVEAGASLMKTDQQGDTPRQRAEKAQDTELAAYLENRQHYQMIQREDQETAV
Compound,IC50 [1],EC50 (primary human T-cells [2]),Emax proliferation (% activation) (primary human T-cells [2]),EC50 (primary human T-cells [3]),Emax IL2 (% activation) (primary human T-cells [3]),"EC50 (primary human T-cells [2]; Homo sapiens, T-cell, 120 h)","EC50 (primary human T-cells [3]; Homo sapiens, T-cell)"
"COc1ccc(-c2ccc(CN3C(=O)[C@@H](N)CS(=O)(=O)c4ccc(-c5nnc(C(C)(C)C#N)o5)cc43)cc2)cc1 [Example 45, 2-[5-[(3R)-3-amino-5-[[4-(4-methoxyphenyl)phenyl]methyl]-1,1,4-trioxo-2,3-dihydro-1λ^6,5-benzothiazepin-7-yl]-1,3,4-oxadiazol-2-yl]-2-methyl-propanenitrile]",467 nM and 3210 nM,–,–,–,–,–,–
"COC(=O)N1CC2CC(c3nnc(-c4ccc5c(c4)N(Cc4ccc(-c6noc(C(F)(F)F)n6)cc4)C(=O)[C@@H](N)CS5(=O)=O)o3)(C2)C1 [Example 61, methyl 1-[5-[(3R)-3-amino-1,1,4-trioxo-5-[[4-[5-(trifluoromethyl)-1,2,4-oxadiazol-3-yl]phenyl]methyl]-2,3-dihydro-1λ^6,5-benzothiazepin-7-yl]-1,3,4-oxadiazol-2-yl]-3-azabicyclo[3.1.1]heptane-3-carboxylate]",–,216 nM,228 % activation,606 nM,241 % activation,–,–
"COC(F)(c1nnc(-c2ccc3c(c2)N(Cc2ccc(-c4nnc(C(F)(F)F)o4)cc2)C(=O)[C@@H](N)CS3(=O)=O)o1)C(F)(F)F (stereo partly drawn) [Example 67, (3R)-3-amino-1,1-dioxo-7-[5-(1,2,2,2-tetrafluoro-1-methoxy-ethyl)-1,3,4-oxadiazol-2-yl]-5-[[4-[5-(trifluoromethyl)-1,3,4-oxadiazol-2-yl]phenyl]methyl]-2,3-dihydro-1λ^6,5-benzothiazepin-4-one]",–,–,119 % activation,–,168 % activation,262 nM,739 nM
"N[C@H]1CS(=O)(=O)c2ccc(-c3nnc(N4CCC(F)(F)CC4)o3)cc2N(Cc2ccc(-c3noc(C4CC4)n3)cc2)C1=O [Example 69, (3R)-3-amino-5-[[4-(5-cyclopropyl-1,2,4-oxadiazol-3-yl)phenyl]methyl]-7-[5-(4,4-difluoro-1-piperidyl)-1,3,4-oxadiazol-2-yl]-1,1-dioxo-2,3-dihydro-1λ^6,5-benzothiazepin-4-one]",–,–,125 % activation,–,83 % activation,409 nM,448 nM
"N[C@H]1CS(=O)(=O)c2ccc(-c3nnc(N4CCC(F)(F)CC4)o3)cc2N(Cc2ccc(-c3nnc(C(F)F)o3)cc2)C1=O [Example 70, (3R)-3-amino-5-[[4-[5-(difluoromethyl)-1,3,4-oxadiazol-2-yl]phenyl]methyl]-7-[5-(4,4-difluoro-1-piperidyl)-1,3,4-oxadiazol-2-yl]-1,1-dioxo-2,3-dihydro-1λ^6,5-benzothiazepin-4-one]",–,–,76 % activation,–,43 % activation,2760 nM,> 10000 nM
"N[C@H]1CS(=O)(=O)c2ccc(-c3nnc(N4CCOC(F)(F)C4)o3)cc2N(Cc2ccc(-c3nnc(C(F)F)o3)cc2)C1=O [Example 82, (3R)-3-amino-5-[[4-[5-(difluoromethyl)-1,3,4-oxadiazol-2-yl]phenyl]methyl]-7-[5-(2,2-difluoromorpholin-4-yl)-1,3,4-oxadiazol-2-yl]-1,1-dioxo-2,3-dihydro-1λ^6,5-benzothiazepin-4-one]",–,–,78 % activation,–,25 % activation,6120 nM,> 10000 nM
"NC(c1nnc(-c2ccc3c(c2)N(Cc2ccc(-c4ccc(C(F)(F)F)cc4)cc2)C(=O)[C@@H](N)CS3(=O)=O)o1)C(F)(F)F (stereo partly drawn) [Example 151, (3R)-3-amino-7-[5-(1-amino-2,2,2-trifluoro-ethyl)-1,3,4-oxadiazol-2-yl]-1,1-dioxo-5-[4-[4-(trifluoromethyl)phenyl]phenyl] methyl 1-2,3-dihydro-1λ^6,5-benzothiazepin-4-one]",–,–,105 % activation,–,65 % activation,1850 nM,903 nM
